Measurements from the OligoGym collection.
Oligonucleotides are given in HELM: sugar(base)linkage, 5' to 3'; d 2'-deoxyribose, r ribose, m 2'-O-methylribose, p phosphate. ss, as = sense and antisense strand

Biological target: TMEM63B
Experiment: reporter assay of Huesken 2005
Conditions: siRNA
Also: test concentration or dose not given here.

First: RNA1{r(C)p.r(G)p.r(U)p.r(G)p.r(U)p.r(G)p.r(U)p.r(A)p.r(A)p.r(A)p.r(U)p.r(G)p.r(C)p.r(C)p.r(A)p.r(G)p.r(G)p.r(G)p.r(C)p.d(T)p.d(T)}|RNA2{r(G)p.r(C)p.r(C)p.r(C)p.r(U)p.r(G)p.r(G)p.r(C)p.r(A)p.r(U)p.r(U)p.r(U)p.r(A)p.r(C)p.r(A)p.r(C)p.r(A)p.r(C)p.r(G)p.d(T)p.d(T)}$$$RNA1{StrandType:ss}|RNA2{StrandType:as}$
Second: RNA1{r(C)p.r(G)p.r(U)p.r(G)p.r(U)p.r(U)p.r(A)p.r(C)p.r(A)p.r(A)p.r(C)p.r(G)p.r(U)p.r(G)p.r(G)p.r(C)p.r(U)p.r(C)p.r(G)p.d(T)p.d(T)}|RNA2{r(C)p.r(G)p.r(A)p.r(G)p.r(C)p.r(C)p.r(A)p.r(C)p.r(G)p.r(U)p.r(U)p.r(G)p.r(U)p.r(A)p.r(A)p.r(C)p.r(A)p.r(C)p.r(G)p.d(G)p.d(G)}$$$RNA1{StrandType:ss}|RNA2{StrandType:as}$
The normalised inhibition (eCFP-eYFP dual reporter) of the first is lower: 52.1% for the first, 91.6% for the second.

Compared with “RNA1{r(C)p.r(U)p.r(A)p.r(G)p.r(C)p.r(U)p.r(C)p.r(C)p.r(C)p.r(A)p.r(C)p.r(G)p.r(U)p.r(C)p.r(U)p.r(A)p.r(U)p.r(G)p.r(U)p.d(T)p.d(T)}|RNA2{r(A)p.r(C)p.r(A)p.r(U)p.r(A)p.r(G)p.r(A)p.r(C)p.r(G)p.r(U)p.r(G)p.r(G)p.r(G)p.r(A)p.r(G)p.r(C)p.r(U)p.r(A)p.r(G)p.d(G)p.d(A)}$$$RNA1{StrandType:ss}|RNA2{StrandType:as}$”, “RNA1{r(C)p.r(U)p.r(C)p.r(A)p.r(C)p.r(G)p.r(G)p.r(A)p.r(C)p.r(A)p.r(C)p.r(A)p.r(G)p.r(A)p.r(C)p.r(U)p.r(U)p.r(C)p.r(C)p.d(T)p.d(T)}|RNA2{r(G)p.r(G)p.r(A)p.r(A)p.r(G)p.r(U)p.r(C)p.r(U)p.r(G)p.r(U)p.r(G)p.r(U)p.r(C)p.r(C)p.r(G)p.r(U)p.r(G)p.r(A)p.r(G)p.d(G)p.d(G)}$$$RNA1{StrandType:ss}|RNA2{StrandType:as}$” is lower in normalised inhibition (eCFP-eYFP dual reporter): 66.7% for the first, 61.7% for the second.

Going from “RNA1{r(C)p.r(U)p.r(C)p.r(C)p.r(G)p.r(U)p.r(U)p.r(G)p.r(A)p.r(C)p.r(U)p.r(U)p.r(U)p.r(G)p.r(A)p.r(C)p.r(C)p.r(A)p.r(A)p.d(T)p.d(T)}|RNA2{r(U)p.r(U)p.r(G)p.r(G)p.r(U)p.r(C)p.r(A)p.r(A)p.r(A)p.r(G)p.r(U)p.r(C)p.r(A)p.r(A)p.r(C)p.r(G)p.r(G)p.r(A)p.r(G)p.d(C)p.d(T)}$$$RNA1{StrandType:ss}|RNA2{StrandType:as}$” to “RNA1{r(C)p.r(U)p.r(C)p.r(C)p.r(U)p.r(C)p.r(U)p.r(U)p.r(C)p.r(U)p.r(U)p.r(C)p.r(C)p.r(U)p.r(C)p.r(A)p.r(C)p.r(C)p.r(A)p.d(T)p.d(T)}|RNA2{r(U)p.r(G)p.r(G)p.r(U)p.r(G)p.r(A)p.r(G)p.r(G)p.r(A)p.r(A)p.r(G)p.r(A)p.r(A)p.r(G)p.r(A)p.r(G)p.r(G)p.r(A)p.r(G)p.d(G)p.d(A)}$$$RNA1{StrandType:ss}|RNA2{StrandType:as}$”, the normalised inhibition (eCFP-eYFP dual reporter) falls from 98.6% to 68%.

First: RNA1{r(C)p.r(U)p.r(C)p.r(U)p.r(A)p.r(C)p.r(U)p.r(A)p.r(C)p.r(G)p.r(C)p.r(C)p.r(U)p.r(A)p.r(C)p.r(C)p.r(U)p.r(G)p.r(C)p.d(T)p.d(T)}|RNA2{r(G)p.r(C)p.r(A)p.r(G)p.r(G)p.r(U)p.r(A)p.r(G)p.r(G)p.r(C)p.r(G)p.r(U)p.r(A)p.r(G)p.r(U)p.r(A)p.r(G)p.r(A)p.r(G)p.d(A)p.d(T)}$$$RNA1{StrandType:ss}|RNA2{StrandType:as}$
Second: RNA1{r(C)p.r(U)p.r(C)p.r(U)p.r(C)p.r(C)p.r(G)p.r(U)p.r(A)p.r(G)p.r(G)p.r(C)p.r(A)p.r(U)p.r(C)p.r(G)p.r(U)p.r(G)p.r(C)p.d(T)p.d(T)}|RNA2{r(G)p.r(C)p.r(A)p.r(C)p.r(G)p.r(A)p.r(U)p.r(G)p.r(C)p.r(C)p.r(U)p.r(A)p.r(C)p.r(G)p.r(G)p.r(A)p.r(G)p.r(A)p.r(G)p.d(G)p.d(A)}$$$RNA1{StrandType:ss}|RNA2{StrandType:as}$
The normalised inhibition (eCFP-eYFP dual reporter) of the first is lower: 56.4% for the first, 75.8% for the second.

Compared with “RNA1{r(C)p.r(U)p.r(G)p.r(C)p.r(C)p.r(G)p.r(G)p.r(C)p.r(C)p.r(A)p.r(A)p.r(G)p.r(C)p.r(U)p.r(G)p.r(G)p.r(A)p.r(C)p.r(A)p.d(T)p.d(T)}|RNA2{r(U)p.r(G)p.r(U)p.r(C)p.r(C)p.r(A)p.r(G)p.r(C)p.r(U)p.r(U)p.r(G)p.r(G)p.r(C)p.r(C)p.r(G)p.r(G)p.r(C)p.r(A)p.r(G)p.d(G)p.d(T)}$$$RNA1{StrandType:ss}|RNA2{StrandType:as}$”, “RNA1{r(C)p.r(U)p.r(G)p.r(C)p.r(G)p.r(C)p.r(U)p.r(G)p.r(C)p.r(C)p.r(U)p.r(G)p.r(G)p.r(U)p.r(C)p.r(A)p.r(U)p.r(C)p.r(A)p.d(T)p.d(T)}|RNA2{r(U)p.r(G)p.r(A)p.r(U)p.r(G)p.r(A)p.r(C)p.r(C)p.r(A)p.r(G)p.r(G)p.r(C)p.r(A)p.r(G)p.r(C)p.r(G)p.r(C)p.r(A)p.r(G)p.d(C)p.d(C)}$$$RNA1{StrandType:ss}|RNA2{StrandType:as}$” is higher in normalised inhibition (eCFP-eYFP dual reporter): 65.2% for the first, 66.1% for the second.

Going from “RNA1{r(C)p.r(U)p.r(G)p.r(C)p.r(U)p.r(C)p.r(A)p.r(U)p.r(G)p.r(U)p.r(A)p.r(C)p.r(A)p.r(U)p.r(G)p.r(A)p.r(U)p.r(C)p.r(C)p.d(T)p.d(T)}|RNA2{r(G)p.r(G)p.r(A)p.r(U)p.r(C)p.r(A)p.r(U)p.r(G)p.r(U)p.r(A)p.r(C)p.r(A)p.r(U)p.r(G)p.r(A)p.r(G)p.r(C)p.r(A)p.r(G)p.d(G)p.d(C)}$$$RNA1{StrandType:ss}|RNA2{StrandType:as}$” to “RNA1{r(C)p.r(U)p.r(G)p.r(C)p.r(U)p.r(G)p.r(A)p.r(A)p.r(G)p.r(C)p.r(A)p.r(C)p.r(C)p.r(U)p.r(G)p.r(G)p.r(U)p.r(A)p.r(G)p.d(T)p.d(T)}|RNA2{r(C)p.r(U)p.r(A)p.r(C)p.r(C)p.r(A)p.r(G)p.r(G)p.r(U)p.r(G)p.r(C)p.r(U)p.r(U)p.r(C)p.r(A)p.r(G)p.r(C)p.r(A)p.r(G)p.d(C)p.d(A)}$$$RNA1{StrandType:ss}|RNA2{StrandType:as}$”, the normalised inhibition (eCFP-eYFP dual reporter) rises from 49% to 75%.

First: RNA1{r(C)p.r(U)p.r(G)p.r(G)p.r(U)p.r(C)p.r(A)p.r(U)p.r(C)p.r(A)p.r(C)p.r(C)p.r(A)p.r(U)p.r(C)p.r(G)p.r(U)p.r(C)p.r(A)p.d(T)p.d(T)}|RNA2{r(U)p.r(G)p.r(A)p.r(C)p.r(G)p.r(A)p.r(U)p.r(G)p.r(G)p.r(U)p.r(G)p.r(A)p.r(U)p.r(G)p.r(A)p.r(C)p.r(C)p.r(A)p.r(G)p.d(G)p.d(A)}$$$RNA1{StrandType:ss}|RNA2{StrandType:as}$
Second: RNA1{r(C)p.r(U)p.r(G)p.r(U)p.r(A)p.r(C)p.r(U)p.r(U)p.r(C)p.r(A)p.r(C)p.r(A)p.r(A)p.r(A)p.r(C)p.r(C)p.r(U)p.r(C)p.r(C)p.d(T)p.d(T)}|RNA2{r(G)p.r(G)p.r(A)p.r(G)p.r(G)p.r(U)p.r(U)p.r(U)p.r(G)p.r(U)p.r(G)p.r(A)p.r(A)p.r(G)p.r(U)p.r(A)p.r(C)p.r(A)p.r(G)p.d(C)p.d(T)}$$$RNA1{StrandType:ss}|RNA2{StrandType:as}$
The normalised inhibition (eCFP-eYFP dual reporter) of the first is higher: 67% for the first, 57.4% for the second.

Compared with “RNA1{r(C)p.r(U)p.r(G)p.r(U)p.r(G)p.r(G)p.r(A)p.r(C)p.r(C)p.r(C)p.r(C)p.r(A)p.r(G)p.r(A)p.r(A)p.r(G)p.r(C)p.r(A)p.r(A)p.d(T)p.d(T)}|RNA2{r(U)p.r(U)p.r(G)p.r(C)p.r(U)p.r(U)p.r(C)p.r(U)p.r(G)p.r(G)p.r(G)p.r(G)p.r(U)p.r(C)p.r(C)p.r(A)p.r(C)p.r(A)p.r(G)p.d(T)p.d(A)}$$$RNA1{StrandType:ss}|RNA2{StrandType:as}$”, “RNA1{r(C)p.r(U)p.r(U)p.r(C)p.r(C)p.r(U)p.r(G)p.r(U)p.r(A)p.r(U)p.r(C)p.r(U)p.r(G)p.r(C)p.r(U)p.r(G)p.r(C)p.r(U)p.r(C)p.d(T)p.d(T)}|RNA2{r(G)p.r(A)p.r(G)p.r(C)p.r(A)p.r(G)p.r(C)p.r(A)p.r(G)p.r(A)p.r(U)p.r(A)p.r(C)p.r(A)p.r(G)p.r(G)p.r(A)p.r(A)p.r(G)p.d(G)p.d(C)}$$$RNA1{StrandType:ss}|RNA2{StrandType:as}$” is higher in normalised inhibition (eCFP-eYFP dual reporter): 75.4% for the first, 75.8% for the second.

Going from “RNA1{r(C)p.r(U)p.r(U)p.r(C)p.r(U)p.r(U)p.r(U)p.r(U)p.r(C)p.r(C)p.r(A)p.r(C)p.r(C)p.r(A)p.r(U)p.r(G)p.r(C)p.r(G)p.r(C)p.d(T)p.d(T)}|RNA2{r(G)p.r(C)p.r(G)p.r(C)p.r(A)p.r(U)p.r(G)p.r(G)p.r(U)p.r(G)p.r(G)p.r(A)p.r(A)p.r(A)p.r(A)p.r(G)p.r(A)p.r(A)p.r(G)p.d(A)p.d(G)}$$$RNA1{StrandType:ss}|RNA2{StrandType:as}$” to “RNA1{r(C)p.r(U)p.r(U)p.r(G)p.r(A)p.r(A)p.r(A)p.r(U)p.r(C)p.r(A)p.r(G)p.r(G)p.r(G)p.r(A)p.r(A)p.r(C)p.r(A)p.r(A)p.r(C)p.d(T)p.d(T)}|RNA2{r(G)p.r(U)p.r(U)p.r(G)p.r(U)p.r(U)p.r(C)p.r(C)p.r(C)p.r(U)p.r(G)p.r(A)p.r(U)p.r(U)p.r(U)p.r(C)p.r(A)p.r(A)p.r(G)p.d(T)p.d(T)}$$$RNA1{StrandType:ss}|RNA2{StrandType:as}$”, the normalised inhibition (eCFP-eYFP dual reporter) rises from 39.7% to 71.1%.

First: RNA1{r(C)p.r(U)p.r(U)p.r(U)p.r(C)p.r(C)p.r(U)p.r(C)p.r(A)p.r(U)p.r(C)p.r(U)p.r(U)p.r(C)p.r(A)p.r(U)p.r(G)p.r(G)p.r(U)p.d(T)p.d(T)}|RNA2{r(A)p.r(C)p.r(C)p.r(A)p.r(U)p.r(G)p.r(A)p.r(A)p.r(G)p.r(A)p.r(U)p.r(G)p.r(A)p.r(G)p.r(G)p.r(A)p.r(A)p.r(A)p.r(G)p.d(T)p.d(G)}$$$RNA1{StrandType:ss}|RNA2{StrandType:as}$
Second: RNA1{r(C)p.r(U)p.r(U)p.r(U)p.r(U)p.r(C)p.r(C)p.r(A)p.r(C)p.r(C)p.r(A)p.r(U)p.r(G)p.r(C)p.r(G)p.r(C)p.r(A)p.r(C)p.r(G)p.d(T)p.d(T)}|RNA2{r(C)p.r(G)p.r(U)p.r(G)p.r(C)p.r(G)p.r(C)p.r(A)p.r(U)p.r(G)p.r(G)p.r(U)p.r(G)p.r(G)p.r(A)p.r(A)p.r(A)p.r(A)p.r(G)p.d(A)p.d(A)}$$$RNA1{StrandType:ss}|RNA2{StrandType:as}$
The normalised inhibition (eCFP-eYFP dual reporter) of the first is higher: 72.7% for the first, 0% for the second.
